The numbers were not newly measured in patent US10513689B2, “Culture media for multipotent stem cells” (Hope Biosciences LLC, priority 2016, dated 2019), which cites them from elsewhere.

In the data set the test system is MSCs. Conditions: Tamama et al., 2010.

Take “EGF: Epidermal growth factor, mitogen of MSCs”: the “increase in the number of colony-forming units” value is recorded as 25%.
